Here are results for 27 compounds from patent US10464907B2, “Compound having HSP90 inhibitory activity or pharmaceutically acceptable salt thereof, and medical use thereof” (priority 2016, dated 2019).

Each structure is given as a SMILES string. Like-named read-outs stand apart in the source and are kept apart here.

One data set relates to H1975. Nature of the data set: MTS cell proliferation / survival assay. It counts as cell-based. The note with it: Homo sapiens; for inhibition at 10 µM: NCI-H1975, read-out: Inhibition rate at 10 μM (%); for inhibition at 30 µM: NCI-H1975, read-out: Inhibition rate at 30 μM (%). On the procedure: Sk-Br3 (Korean cell line bank), a breast cancer cell, and H1975 cell (ATCC), a nonsmall cell lung cancer, were cultured in RPMI 1640 containing 25 mM HEPES (4-(2-hydroxyethyl)-1-piperazineethanesulfonic acid) and RPMI 1640 containing L-glutamine (containing streptomycin ([…]), penicillin (100 units/mL) and 10% fetal bovine serum (FBS)).
The cells were cultured under a humidified atmosphere of 37° C. and 5% CO2.
Next, non-metastatic lung cancer cells were treated with Compound 17 and the cell proliferation rate or cell survival rate was measured by MTS [3-(4,5-dimethylthiazol-2-yl)-5-(3-carboxymethoxyphenyl)-2-2H-tetrazolium, inner salt] analysis.
Cells were dispensed in 96-well plates at 3000 cell/well (Sk-Br3) and 2000 cell/well (H1975), and 100 μL of the medium was added per well and then was incubated overnight.
Cell proliferation was evaluated using the Promega Cell Titer 96 Aqueous One Solution cell proliferation assay.
After compound and cell culture, 20 μL of assay substrate solution was added to each well and incubated at 37° C. for an additional 1 hour.
Cell proliferation was confirmed by measuring the absorbance at 490 nm using a microplate reader (Tecan Infinite F200 Proplate reader).

The next data set is described as follows: LogP. Particulars: called measured values of LogP. It counts as physicochemical. On the procedure: All experimental data were analyzed using Prism software (version 5.0, Graphpad Software, San Diego, Calif.). In addition, tPSA (Topological Polar Surface Area) calculated using Chemdraw software and the measured values of LogP are shown in Tables 1 and 2 below.

Another data set relates to H1975 cells. Nature of the data set: MTS cell viability in H1975 cells resistant to Gefitinib. In kind it is cell-based. The note with it: read-out: H1975 (EC50; μM). The procedure: To confirm the cell viability according to the concentration of the compound synthesized in H1975 cells (ATCC) resistant to Gefitinib, MTS [3-(4,5-dimethylthiazol-2-yl)-5-[…]carboxymethoxyphenyl)-2-(4-sulfophenyl)-2H-tetrazolium, inner salt] analysis was performed. When the cells were cultured so as to occupy 80% of the bottom of the culture dish, the cells were detached and diluted with RPMI 1640 medium to a concentration of 1.5×10^3 cells/well. Each 100 μL of the suspension was added to each well of a 96-well plate and cultured for 14 hours. Then, the medium was changed to the culture solution treated with compound of each concentration each concentration (1a-g: 0, 1, 5, 10, 30, 50 or 100 μM, 14a-I, 16a, b, 21a-f: 0, 0.01, 0.1, 1, 5, 10, 30, 50, 70 or 100 μM), and cultured for 3 days. Each 20 μL of the MTS solution was dispensed into each well and reacted for 1 hour at 37° C. in an incubator supplied with 5% CO2.

In the next data set the target is HSP90α (Homo sapiens (Human), UniProt P07900). Nature of the data set: Fluorescence polarization assay, binding ability to HSP90, benzamide compounds. Particulars: GA-FITC 100 nM; read-out: HSP90 FP) (IC50; nM). On the procedure:
1 M dithiothreitol (DTT), 10 mg/m: BGG (bovine gamma globulin) were added to hexafluorobenzene (HFB) buffer (20 mM HEPES pH 7.3, 50 mM KCl, 5 mM MgCl2, 20 mM Na2MoO4, 0.01% NP4O, 3rd distilled water) and mixed. Then, 100 nM […] (GA)-FITC (Fluorescein isothiocyanate) was added and reacted at room temperature for 10 minutes. Each 100 μL of the mixture was dispensed into the control wells of a 96-well plate, 2 μL of HSP90α was added to the remaining mixture, and each 100 μL of the other wells was dispensed. […] The binding ability of the compound to HSP90 was expressed as mP (millipolarization unit=1000 mP unit).
For orientation: In fluorescence polarisation assays a small probe gives low polarisation when free and higher when bound to something large.

A word on the inhibition: it is the percentage by which the read-out fell short of the control. Usually logP stands for a log measure of how a compound divides between an organic and an aqueous phase. Lower therefore signals a more hydrophilic compound. The term EC50 denotes the concentration needed to bring the measured effect to its halfway point. For orientation: IC50 means the concentration that inhibits the measured activity by half.

With `O=C(c1cc(Cl)c(O)cc1O)N1CCCC1` [Compound 11a, (5-chloro-2,4-dihydroxyphenyl) (pyrrolidin-1-yl)methanone], in the data set on H1975, the inhibition at 10 µM was 8.1% and the inhibition at 30 µM came out at 22.1%. The same compound returned a logP in “LogP” of 1.13.
The like results for `O=C(c1cc(Cl)c(O)cc1O)N1CCCCC1` [Compound 11b, (5-chloro-2,4-dihydroxyphenyl) (piperidin-1-yl)methanone] were, in that order, 7.6%, 26.3% and 1.69.
Take `O=C(c1cc(Cl)c(O)cc1O)N1CCOCC1` [Compound 11c, (5-chloro-2,4-dihydroxyphenyl) (morpholino)methanone]: in the data set with H1975, the inhibition at 10 µM amounted to 24.3% and the inhibition at 30 µM worked out at 44%. In the data set “LogP”, this compound returned a logP of 0.66.
The like results for `O=C(c1cc(Cl)c(O)cc1O)N1CCNCC1` [Compound 11d, (5-chloro-2,4-dihydroxyphenyl) (piperazin-1-yl)methanone] were, in that order, 0%, 0% and 0.65.
In the same order, the values of `CN1CCN(C(=O)c2cc(Cl)c(O)cc2O)CC1` [Compound 11e, (5-chloro-2,4-dihydroxyphenyl)(4-methylpiperazin-1-yl)methanone] are 26.3%, 48.7% and 1.23.
Take `CC(=O)N1CCN(C(=O)c2cc(Cl)c(O)cc2O)CC1` [Compound 11f, 1-(4-(5-chloro-2,4-dihydroxybenzoyl)piperazin-1-yl)ethanone]: in the data set on H1975, the inhibition at 10 µM is 0% and the inhibition at 30 µM came out at 10.5%. This compound also registered a logP in “LogP” of 0.25.
Turning to `O=C1CN(C(=O)c2cc(Cl)c(O)cc2O)CCN1` [Compound 11g, 4-(5-chloro-2,4-dihydroxybenzoyl)piperazin-2-one], in the data set with H1975, the inhibition at 10 µM was determined as 0% and the inhibition at 30 µM was 0%. Further, the logP in the data set “LogP” is 0.45.
For `O=C1CCN(C(=O)c2cc(Cl)c(O)cc2O)C1` [Compound 11h, 1-(5-chloro-2,4-dihydroxybenzoyl) pyrrolidin-3-one], in the data set with H1975, the inhibition at 10 µM was 0% and the inhibition at 30 µM turned out to be 0%. Also, in the data set “LogP”, the logP came out at 0.84.
In turn, `O=C1CCN(C(=O)c2cc(Cl)c(O)cc2O)CC1` [Compound 11i, 1-(5-chloro-2,4-dihydroxybenzoyl)piperidin-4-one] returned a logP in “LogP” of 0.6.
Compound `CN1CCN(C(=O)c2cc(Cl)c(O)cc2O)C(c2ccccc2)C1` (centres unmarked) [Compound 11j, (5-chloro-2,4-dihydroxyphenyl)(4-methyl-2-phenylpiperazin-1-yl)methanone] showed a logP in the data set “LogP” of 3.22.
On to `O=C(NCc1ccccc1)c1cc(Cl)c(O)cc1O` [Compound 14a, N-Benzyl-5-chloro-2,4-dihydroxybenzamide], for which the EC50 in the data set with H1975 cells (Homo sapiens, NCI-H1975, 72 h) came out at 86.2 µM.
`CN(Cc1ccccc1)C(=O)c1cc(Cl)c(O)cc1O` [Compound 14b, N-Benzyl-5-chloro-2,4-dihydroxy-N-methylbenzamide]: the IC50 on HSP90α turned out to be 413 nM. In addition, the EC50 in the data set on H1975 cells (Homo sapiens, NCI-H1975, 72 h) amounted to 35.5 µM.
The like results for `COc1ccc(CN(C)C(=O)c2cc(Cl)c(O)cc2O)cc1` [Compound 14c, 5-chloro-2,4-dihydroxy-N-(4-methoxybenzyl)-N-methylbenzamide] were, in that order, 135 nM and 16.7 µM.
In the same order, the values of `COc1ccc(CN(C)C(=O)c2cc(Cl)c(O)cc2O)cc1OC` [Compound 14d, 5-chloro-N-(3,4-dimethoxybenzyl)-2,4-dihydroxy-N-methylbenzamide] are 362 nM and 33.4 µM.
The like results for `CN(Cc1ccc2c(c1)OCO2)C(=O)c1cc(Cl)c(O)cc1O` [Compound 14e, N-(benzo[d][1,3]dioxol-5-ylmethyl)-5-chloro-2,4-dihydroxy-N-methylbenzamide] were, in that order, 585 nM and 103 µM.
With `COc1cc(CN(C)C(=O)c2cc(Cl)c(O)cc2O)cc(OC)c1OC` [Compound 14f, 5-chloro-2,4-dihydroxy-N-methyl-N-(3,4,5-trimethoxybenzyl) benzamide], the IC50 on HSP90α amounted to 1460 nM. The EC50 in the data set with H1975 cells (H1975, 3 days) worked out at 73.1 µM.
With `COc1cc(CN(C)C(=O)c2cc(Cl)c(O)cc2O)c(Cl)c(OC)c1OC` [Compound 14g, 5-chloro-N-(2-chloro-3,4,5-trimethoxybenzyl)-2,4-dihydroxy-N-methylbenzamide], on HSP90α, the IC50 was determined as 429 nM. Besides, in the data set on H1975 cells (Homo sapiens, NCI-H1975, 72 h), the EC50 worked out at 33.8 µM.
On to `COc1cc(CN(C)C(=O)c2cc(Cl)c(O)cc2O)c(Br)c(OC)c1OC` [Compound 14h, N-(2-bromo-3,4,5-trimethoxybenzyl)-5-chloro-2,4-dihydroxy-N-methylbenzamide], for which, at HSP90α, the IC50 stood at 528 nM. The concentration giving a half-maximal response (EC50) in the data set with H1975 cells (Homo sapiens, NCI-H1975, 72 h) turned out to be 34.3 µM.
Regarding `Cc1cccc(CN(C)C(=O)c2cc(Cl)c(O)cc2O)c1` [Compound 14i, 5-chloro-2,4-dihydroxy-N-methyl-N-(3-methylbenzyl)benzamide], the EC50 in the data set on H1975 cells (Homo sapiens, NCI-H1975, 72 h) stood at 47.5 µM.
Turning to `Cc1ccccc1CN(C)C(=O)c1cc(Cl)c(O)cc1O` [Compound 16a, 5-chloro-2,4-dihydroxy-N-methyl-N-(2-methylbenzyl)benzamide], the EC50 with H1975 cells (Homo sapiens, NCI-H1975, 72 h) stood at 49.3 µM.
For `Cc1ccc(CN(C)C(=O)c2cc(Cl)c(O)cc2O)cc1` [Compound 16b, 5-chloro-2,4-dihydroxy-N-methyl-N-(4-methylbenzyl)benzamide], at HSP90α, the IC50 was determined as 558 nM. Further, the EC50 in the data set with H1975 cells (Homo sapiens, NCI-H1975, 72 h) came out at 34.3 µM.
Turning to `CNC(=O)c1ccc(CN(C)C(=O)c2cc(Cl)c(O)cc2O)cc1` [Compound 21a, 5-chloro-2,4-dihydroxy-N-methyl-N-(4-(methylcarbamoyl)benzyl) benzamide], the 50% inhibitory concentration (IC50) at HSP90α is 496 nM. For the same compound, the EC50 in the data set on H1975 cells (H1975, 3 days) was 34.8 µM.
For the compound `CCNC(=O)c1ccc(CN(C)C(=O)c2cc(Cl)c(O)cc2O)cc1` [Compound 21b, 5-chloro-N-(4-(ethylcarbamoyl)benzyl)-2,4-dihydroxy-N-methylbenzamide], at HSP90α, the IC50 is 612 nM. Further, the concentration for a half-maximal effect (EC50) in the data set on H1975 cells (Homo sapiens, NCI-H1975, 72 h) stood at 21.7 µM.
Consider `CCCNC(=O)c1ccc(CN(C)C(=O)c2cc(Cl)c(O)cc2O)cc1` [Compound 21c, 5-chloro-2,4-dihydroxy-N-methyl-N-(4-(propylcarbamoyl)benzyl)benzamide], for which the IC50 at HSP90α came out at 454 nM. For the same compound, the concentration giving a half-maximal response (EC50) in the data set with H1975 cells (Homo sapiens, NCI-H1975, 72 h) was 20.8 µM.
On to `CNC(=O)c1ccc(CN(C)C(=O)c2cc(C(C)C)c(O)cc2O)cc1` [Compound 21d, 2,4-dihydroxy-5-isopropyl-N-methyl-N-(4-(methylcarbamoyl)benzyl) benzamide], for which the half-inhibitory concentration (IC50) on HSP90α came out at 11.4 nM. Moreover, in the data set with H1975 cells (H1975, 3 days), the EC50 was 0.83 µM.
Regarding `CCNC(=O)c1ccc(CN(C)C(=O)c2cc(C(C)C)c(O)cc2O)cc1` [Compound 21e, N-(4-(ethylcarbamoyl)benzyl)-2,4-dihydroxy-5-isopropyl-N-methylbenzamide], the IC50 on HSP90α stood at 6.5 nM. For the same compound, the EC50 in the data set on H1975 cells (Homo sapiens, NCI-H1975, 72 h) stood at 0.46 µM.
With `CC(C)c1cc(C(=O)N(C)Cc2ccccc2)c(O)cc1O` [Compound 21g, N-benzyl-2,4-dihydroxy-5-isopropyl-N-methylbenzamide], the EC50 with H1975 cells (Homo sapiens, NCI-H1975, 72 h) is 4.1 µM.
